Assay results from patent US20240376084A1, “INHIBITORS OF ALPHA-HEMOLYSIN OF STAPHYLOCOCCUS AUREUS” (Helmholtz-Zentrum Fur Infektionsforschung GmbH, priority 2021, published 2024).

Legend:
[1] = target: hemolysin alpha from Staphylococcus aureus (Staphylococcus aureus, UniProt P09616); assay: cell-based
[2] = target: S. aureus Alpha hemolysin (Staphylococcus aureus, UniProt P09616); assay: cell-based; details: A549-LDH Assay activity
Sequence of S. aureus Alpha hemolysin (P09616 27-319 limits assumed): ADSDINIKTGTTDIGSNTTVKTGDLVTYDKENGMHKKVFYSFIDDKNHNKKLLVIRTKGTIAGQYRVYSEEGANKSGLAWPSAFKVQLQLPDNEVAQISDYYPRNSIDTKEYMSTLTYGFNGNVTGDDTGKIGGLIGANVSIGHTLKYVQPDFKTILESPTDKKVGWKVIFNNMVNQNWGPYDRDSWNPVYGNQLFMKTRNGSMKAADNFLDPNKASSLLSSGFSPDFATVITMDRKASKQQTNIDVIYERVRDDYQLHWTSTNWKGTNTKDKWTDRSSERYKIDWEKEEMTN

Sequence of hemolysin alpha from Staphylococcus aureus (P09616 27-319 limits assumed): as above

Row | SMILES | EC50 [1] [µM] | EC50 [2] [µM] | IC50 [1] [µM]
1 | O=c1[nH]c2cc(OC3CC3)c(S(=O)(=O)Nc3ccc(OC(F)(F)F)cc3)cc2[nH]c1=O [Compound 382, 7-(cyclopropoxy)-2,3-dioxo-N-[4-(trifluoromethoxy)phenyl]-1,4-dihydroquinoxaline-6-sulfonamide] | 1 to 3.5 | 0.1 to 1 | 
2 | Cc1cc2[nH]c(=O)c(=O)[nH]c2cc1S(=O)(=O)Nc1ccc(-c2ccc(C#N)nc2)c(Cl)c1 [Compound 254, N-[3-chloro-4-(6-cyano-3-pyridyl)phenyl]-7-methyl-2,3-dioxo-1,4-dihydroquinoxaline-6-sulfonamide] | 0.1 to 1 | 0.1 to 1 | 
3 | CC(C)c1cc2[nH]c(=O)c(=O)[nH]c2cc1S(=O)(=O)Nc1ccc(OC(F)(F)F)cc1 [Compound 31, 7-isopropyl-2,3-dioxo-N-(4-(trifluoromethoxy)phenyl)-1,2,3,4-tetrahydroquinoxaline-6-sulfonamide] |  | < 0.03 | < 0.03
4 | Cc1cccc(-c2ccc(NS(=O)(=O)c3cc4[nH]c(=O)c(=O)[nH]c4cc3C)cc2)c1 [Compound 112, 7-methyl-N-(3′-methyl-[1,1′-biphenyl]-4-yl)-2,3-dioxo-1,2,3,4-tetrahydroquinoxaline-6-sulfonamide] |  | 0.1 to 1 | 0.1 to 1
5 | COc1ccccc1-c1ccc(NS(=O)(=O)c2cc3[nH]c(=O)c(=O)[nH]c3cc2C)cc1 [Compound 114, N-(2′-methoxy-[1,1′-biphenyl]-4-yl)-7-methyl-2,3-dioxo-1,2,3,4-tetrahydroquinoxaline-6-sulfonamide] |  | 0.1 to 1 | 0.1 to 1
6 | Cc1cc2[nH]c(=O)c(=O)[nH]c2cc1S(=O)(=O)Nc1ccc(I)c(C(F)(F)F)c1 [Compound 325, N-[4-iodo-3-(trifluoromethyl)phenyl]-7-methyl-2,3-dioxo-1,4-dihydroquinoxaline-6-sulfonamide] | 0.1 to 1 | 1 to 6 | 
7 | Cc1ccc(-c2ccc(NS(=O)(=O)c3cc4[nH]c(=O)c(=O)[nH]c4cc3Cl)cc2Cl)o1 [Compound 146, 7-chloro-N-(3-chloro-4-(5-methylfuran-2-yl)phenyl)-2,3-dioxo-1,2,3,4-tetrahydroquinoxaline-6-sulfonamide] |  | 1 to 6 | 0.1 to 1
8 | Cc1cc2[nH]c(=O)c(=O)[nH]c2cc1S(=O)(=O)Nc1ccc(C2CCOCC2)cc1 [Compound 304, 7-methyl-2,3-dioxo-N-(4-tetrahydropyran-4-ylphenyl)-1,4-dihydroquinoxaline-6-sulfonamide] | 1 to 3.5 | 0.1 to 1 | 
9 | O=c1[nH]c2cc(Cl)c(S(=O)(=O)Nc3ccc(-c4ccccc4)c(Cl)c3)cc2[nH]c1=O [Compound 14, 7-chloro-N-(2-chloro-[1,1′-biphenyl]-4-yl)-2,3-dioxo-1,2,3,4-tetrahydroquinoxaline-6-sulfonamide] |  | 0.1 to 1 | < 0.03
10 | O=c1[nH]c2cc(Cl)c(S(=O)(=O)Nc3ccc(-c4ccncc4)c(Cl)c3)cc2[nH]c1=O [Compound 94, 7-chloro-N-(3-chloro-4-(pyridin-4-yl)phenyl)-2,3-dioxo-1,2,3,4-tetrahydroquinoxaline-6-sulfonamide] |  | 0.1 to 1 | 0.1 to 1
11 | Cc1cc2[nH]c(=O)c(=O)[nH]c2cc1S(=O)(=O)Nc1ccc(N2CCOCC2)c(Br)c1 [Compound 128, N-(3-bromo-4-morpholinophenyl)-7-methyl-2,3-dioxo-1,2,3,4-tetrahydroquinoxaline-6-sulfonamide] |  | 0.1 to 1 | 0.1 to 1
12 | Cc1cc2[nH]c(=O)c(=O)[nH]c2cc1S(=O)(=O)Nc1cc(Cl)c(-c2cccc(Cl)c2)cn1 [Compound 210, N-(4-chloro-5-(3-chlorophenyl)pyridin-2-yl)-7-methyl-2,3-dioxo-1,2,3,4-tetrahydroquinoxaline-6-sulfonamide] | 0.03 to 0.1 | 0.1 to 1 | 
13 | O=c1[nH]c2cc(Cl)c(S(=O)(=O)Nc3ccc(-c4cccnc4)c(Cl)c3)cc2[nH]c1=O [Compound 48, 7-chloro-N-(3-chloro-4-(pyridin-3-yl)phenyl)-2,3-dioxo-1,2,3,4-tetrahydroquinoxaline-6-sulfonamide] |  | 1 to 6 | 0.03 to 0.1
14 | O=c1[nH]c2cc(Cl)c(S(=O)(=O)Nc3ccc4ccccc4c3)cc2[nH]c1=O [Compound 172, 7-chloro-N-(naphthalen-2-yl)-2,3-dioxo-1,2,3,4-tetrahydroquinoxaline-6-sulfonamide] |  | 0.1 to 1 | 0.1 to 1
15 | CC(C)(C)c1ccc(NS(=O)(=O)c2cc3[nH]c(=O)c(=O)[nH]c3cc2Cl)cc1 [Compound 173, N-(4-(tert-butyl)phenyl)-7-chloro-2,3-dioxo-1,2,3,4-tetrahydroquinoxaline-6-sulfonamide] |  | 0.03 to 0.1 | 0.1 to 1
16 | Cc1cc2[nH]c(=O)c(=O)[nH]c2cc1S(=O)(=O)Nc1ccc(-c2ccc(Cl)c(Cl)c2)c(Cl)c1 [Compound 257, N-[3-chloro-4-(3,4-dichlorophenyl)phenyl]-7-methyl-2,3-dioxo-1,4-dihydroquinoxaline-6-sulfonamide] | < 0.03 | 0.03 to 0.1 | 

Row | SMILES | EC50 [1] [µM] | EC50 [2] [µM] | IC50 [1] [µM]
17 | Cc1cc2[nH]c(=O)c(=O)[nH]c2cc1S(=O)(=O)Nc1ccc(-c2cccc(N(C)C)c2)c(Cl)c1 [Compound 4, N-(2-chloro-3′-(dimethylamino)-[1,1′-biphenyl]-4-yl)-7-methyl-2,3-dioxo-1,2,3,4-tetrahydroquinoxaline-6-sulfonamide] |  | 0.03 to 0.1 | < 0.03
18 | Cc1cc2[nH]c(=O)c(=O)[nH]c2cc1S(=O)(=O)Nc1cc(C)c(-c2cccs2)c(C)c1 [Compound 58, N-(3,5-dimethyl-4-(thiophen-2-yl)phenyl)-7-methyl-2,3-dioxo-1,2,3,4-tetrahydroquinoxaline-6-sulfonamide] |  | 1 to 6 | 0.03 to 0.1
19 | Cc1cc2[nH]c(=O)c(=O)[nH]c2cc1S(=O)(=O)Nc1ccc(-c2c(F)cccc2F)c(Cl)c1 [Compound 308, N-[3-chloro-4-(2,6-difluorophenyl)phenyl]-7-methyl-2,3-dioxo-1,4-dihydroquinoxaline-6-sulfonamide] | 0.03 to 0.1 | 0.03 to 0.1 | 
20 | Cc1cc2[nH]c(=O)c(=O)[nH]c2cc1S(=O)(=O)Nc1ccc(-c2ccc3c(c2)OC(F)(F)O3)c(Cl)c1 [Compound 287, N-[3-chloro-4-(2,2-difluoro-1,3-benzodioxol-5-yl)phenyl]-7-methyl-2,3-dioxo-1,4-dihydroquinoxaline-6-sulfonamide] | 0.03 to 0.1 | 0.03 to 0.1 | 
21 | Cc1cc2[nH]c(=O)c(=O)[nH]c2cc1S(=O)(=O)Nc1ccc2c(c1)B(O)OC2 [Compound 388, N-(1-hydroxy-3H-2,1-benzoxaborol-6-yl)-7-methyl-2,3-dioxo-1,4-dihydroquinoxaline-6-sulfonamide] | 0.1 to 1 | 1 to 6 | 
22 | Cc1cc(NS(=O)(=O)c2cc3[nH]c(=O)c(=O)[nH]c3cc2C)ccc1-c1ccccc1 [Compound 17, 7-methyl-N-(2-methyl-[1,1′-biphenyl]-4-yl)-2,3-dioxo-1,2,3,4-tetrahydroquinoxaline-6-sulfonamide] |  | < 0.03 | < 0.03
23 | C#Cc1ccc(NS(=O)(=O)c2cc3[nH]c(=O)c(=O)[nH]c3cc2C)cc1 [Compound 130, N-(4-ethynylphenyl)-7-methyl-2,3-dioxo-1,2,3,4-tetrahydroquinoxaline-6-sulfonamide] |  | 0.1 to 1 | 0.1 to 1
24 | C#Cc1cc(NS(=O)(=O)c2cc3[nH]c(=O)c(=O)[nH]c3cc2C)ccc1-c1ccc2cc[nH]c2c1 [Compound 301, N-[3-ethynyl-4-(1H-indol-6-yl)phenyl]-7-methyl-2,3-dioxo-1,4-dihydroquinoxaline-6-sulfonamide] | < 0.03 | < 0.03 | 
25 | Cc1cc2[nH]c(=O)c(=O)[nH]c2cc1S(=O)(=O)Nc1ccc(-c2ccc(N(C)C)cc2)c(Cl)c1 [Compound 288, N-[3-chloro-4-[4-(dimethylamino)phenyl]phenyl]-7-methyl-2,3-dioxo-1,4-dihydroquinoxaline-6-sulfonamide] | 0.1 to 1 | 1 to 6 | 
26 | Cc1ccc(-c2ccc(NS(=O)(=O)c3cc4[nH]c(=O)c(=O)[nH]c4cc3C)cc2Cl)cc1C [Compound 266, N-[3-chloro-4-(3,4-dimethylphenyl)phenyl]-7-methyl-2,3-dioxo-1,4-dihydroquinoxaline-6-sulfonamide] | 0.1 to 1 | 0.1 to 1 | 
27 | Cc1cc2[nH]c(=O)c(=O)[nH]c2cc1S(=O)(=O)Nc1ccc(-c2ccc3nc[nH]c3c2)c(Cl)c1 [Compound 359, N-[4-(3H-benzimidazol-5-yl)-3-chloro-phenyl]-7-methyl-2,3-dioxo-1,4-dihydroquinoxaline-6-sulfonamide] | 0.1 to 1 | 0.03 to 0.1 | 
28 | Cc1cc2[nH]c(=O)c(=O)[nH]c2cc1S(=O)(=O)Nc1ccc(C(C)C)cc1 [Compound 76, N-(4-isopropylphenyl)-7-methyl-2,3-dioxo-1,2,3,4-tetrahydroquinoxaline-6-sulfonamide] |  | 0.1 to 1 | 0.1 to 1
29 | Cc1cc2[nH]c(=O)c(=O)[nH]c2cc1S(=O)(=O)Nc1ccc(-c2cccs2)c(Cl)c1 [Compound 24, N-(3-chloro-4-(thiophen-2-yl)phenyl)-7-methyl-2,3-dioxo-1,2,3,4-tetrahydroquinoxaline-6-sulfonamide] |  | 0.03 to 0.1 | < 0.03
30 | CCc1ccc(NS(=O)(=O)c2cc3[nH]c(=O)c(=O)[nH]c3cc2C)cc1 [Compound 92, N-(4-ethylphenyl)-7-methyl-2,3-dioxo-1,2,3,4-tetrahydroquinoxaline-6-sulfonamide] |  | < 0.03 | < 0.03
31 | CN(C)c1cccc(-c2ccc(NS(=O)(=O)c3cc4[nH]c(=O)c(=O)[nH]c4cc3Cl)cc2Cl)c1 [Compound 9, 7-chloro-N-(2-chloro-3′-(dimethylamino)-[1,1′-biphenyl]-4-yl)-2,3-dioxo-1,2,3,4-tetrahydroquinoxaline-6-sulfonamide] |  | 0.1 to 1 | < 0.03
32 | Cc1cc2[nH]c(=O)c(=O)[nH]c2cc1S(=O)(=O)Nc1ccc(C(F)(F)F)c(Cl)c1 [Compound 56, N-(3-chloro-4-(trifluoromethyl)phenyl)-7-methyl-2,3-dioxo-1,2,3,4-tetrahydroquinoxaline-6-sulfonamide] |  | 1 to 6 | 0.03 to 0.1
